Experimental data published in ChEMBL document CHEMBL4304741, “Modification and Biological Evaluation of a Series of 1,5-Diaryl-1,2,4-triazole Compounds as Novel Agents against Pancreatic Cancer Metastasis through Targeting Myoferlin” (J Med Chem, 2019).
Active and inactive are the calls of the source. The rule behind the calls is not given here.

How the values were obtained:
PANC-1 [1] = experiment: Effect on EGFR expression in MYOF-knockout human PANC1 cells up to 400 nM by Western blot analysis; format: functional, cell-based
PANC-1 [2] = experiment: Antimigratory activity against human PANC1 cells measured after 18 hrs in presence of mitomycin C using crystal violet staining by inverted microscopy-based transwell assay; format: functional, cell-based
Myoferlin [3] = target: T1, Myoferlin (Homo sapiens, UniProt Q9NZM1); experiment: Inhibition of MYOF in human PANC1 cells assessed as reduction in phospho-VEGFR2 level by Western blot analysis; format: cell-based
T1 sequence (Q9NZM1 whole entry): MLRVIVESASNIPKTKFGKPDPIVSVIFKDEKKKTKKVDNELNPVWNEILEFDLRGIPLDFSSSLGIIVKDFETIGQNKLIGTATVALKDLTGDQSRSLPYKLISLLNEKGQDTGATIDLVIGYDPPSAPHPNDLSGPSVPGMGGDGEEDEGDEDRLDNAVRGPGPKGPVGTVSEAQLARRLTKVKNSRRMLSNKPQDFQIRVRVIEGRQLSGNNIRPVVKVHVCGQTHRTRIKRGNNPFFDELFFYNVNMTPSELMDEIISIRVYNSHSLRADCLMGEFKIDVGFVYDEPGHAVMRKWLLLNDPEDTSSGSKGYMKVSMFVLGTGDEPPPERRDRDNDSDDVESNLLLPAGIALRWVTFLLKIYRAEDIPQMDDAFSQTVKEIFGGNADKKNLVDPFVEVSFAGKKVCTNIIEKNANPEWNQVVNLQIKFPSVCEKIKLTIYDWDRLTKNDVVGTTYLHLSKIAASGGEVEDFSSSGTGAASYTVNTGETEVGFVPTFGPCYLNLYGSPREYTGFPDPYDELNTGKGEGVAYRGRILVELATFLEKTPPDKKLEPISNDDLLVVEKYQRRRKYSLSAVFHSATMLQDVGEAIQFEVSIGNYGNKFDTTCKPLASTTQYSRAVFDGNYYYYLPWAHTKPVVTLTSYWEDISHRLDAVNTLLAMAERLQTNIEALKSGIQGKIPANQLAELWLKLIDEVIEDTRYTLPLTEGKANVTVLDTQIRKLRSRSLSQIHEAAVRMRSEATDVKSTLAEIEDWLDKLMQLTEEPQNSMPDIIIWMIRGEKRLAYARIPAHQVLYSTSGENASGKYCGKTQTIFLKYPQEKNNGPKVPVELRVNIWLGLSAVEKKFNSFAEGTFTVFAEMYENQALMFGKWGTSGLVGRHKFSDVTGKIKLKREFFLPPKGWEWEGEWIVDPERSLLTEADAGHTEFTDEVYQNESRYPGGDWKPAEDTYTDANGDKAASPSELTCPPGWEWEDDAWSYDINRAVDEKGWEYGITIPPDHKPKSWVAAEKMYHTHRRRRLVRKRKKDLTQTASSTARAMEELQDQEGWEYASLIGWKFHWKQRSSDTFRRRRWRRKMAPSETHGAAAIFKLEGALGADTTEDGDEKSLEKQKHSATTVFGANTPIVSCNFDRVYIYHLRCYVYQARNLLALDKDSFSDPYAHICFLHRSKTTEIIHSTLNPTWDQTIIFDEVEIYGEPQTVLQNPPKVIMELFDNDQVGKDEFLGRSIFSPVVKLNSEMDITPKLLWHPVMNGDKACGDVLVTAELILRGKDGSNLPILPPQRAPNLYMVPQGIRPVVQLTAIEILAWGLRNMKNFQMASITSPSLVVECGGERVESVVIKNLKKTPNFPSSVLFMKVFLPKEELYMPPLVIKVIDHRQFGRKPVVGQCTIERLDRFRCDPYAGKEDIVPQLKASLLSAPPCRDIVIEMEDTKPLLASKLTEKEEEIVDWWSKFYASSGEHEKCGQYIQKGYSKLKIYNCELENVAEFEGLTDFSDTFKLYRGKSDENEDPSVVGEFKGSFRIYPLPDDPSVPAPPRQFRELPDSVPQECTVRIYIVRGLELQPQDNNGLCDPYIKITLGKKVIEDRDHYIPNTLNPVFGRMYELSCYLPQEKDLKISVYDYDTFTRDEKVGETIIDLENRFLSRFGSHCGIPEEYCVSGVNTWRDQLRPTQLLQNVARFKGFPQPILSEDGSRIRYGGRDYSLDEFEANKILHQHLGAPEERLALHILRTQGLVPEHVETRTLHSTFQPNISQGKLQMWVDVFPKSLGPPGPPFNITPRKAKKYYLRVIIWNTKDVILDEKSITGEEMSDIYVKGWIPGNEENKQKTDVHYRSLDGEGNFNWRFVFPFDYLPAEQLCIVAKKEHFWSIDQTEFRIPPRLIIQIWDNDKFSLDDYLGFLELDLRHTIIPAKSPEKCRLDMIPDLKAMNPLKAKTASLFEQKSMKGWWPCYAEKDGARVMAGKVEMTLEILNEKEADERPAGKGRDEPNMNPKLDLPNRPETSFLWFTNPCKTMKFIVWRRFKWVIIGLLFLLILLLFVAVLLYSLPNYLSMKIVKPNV

Cytochrome P450 1A2 = target: T2, Cytochrome P450 1A2 (Homo sapiens, UniProt P05177); experiment: Inhibition of CYP1A2 in human liver microsomes using phenacetin as substrate preincubated for 5 mins followed by NADPH-generating system addition and measured after 20 mins by LC-MS/MS analysis
T2 sequence (P05177 whole entry): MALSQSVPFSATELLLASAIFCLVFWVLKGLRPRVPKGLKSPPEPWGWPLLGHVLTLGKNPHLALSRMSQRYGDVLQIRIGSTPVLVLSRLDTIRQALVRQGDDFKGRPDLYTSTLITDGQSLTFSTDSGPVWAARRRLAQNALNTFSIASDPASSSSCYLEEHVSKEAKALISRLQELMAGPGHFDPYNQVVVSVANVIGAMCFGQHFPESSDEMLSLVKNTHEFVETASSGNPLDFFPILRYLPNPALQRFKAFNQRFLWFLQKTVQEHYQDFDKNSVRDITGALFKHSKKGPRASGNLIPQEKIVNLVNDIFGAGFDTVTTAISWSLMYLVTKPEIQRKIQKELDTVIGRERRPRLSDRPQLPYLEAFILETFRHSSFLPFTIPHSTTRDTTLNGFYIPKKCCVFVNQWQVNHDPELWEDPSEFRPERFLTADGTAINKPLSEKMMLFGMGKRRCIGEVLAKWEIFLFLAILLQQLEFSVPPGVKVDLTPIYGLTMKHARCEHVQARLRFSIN

PANC-1 [4] = experiment: Effect on E-cadherin expression in MYOF-knockout human PANC1 cells up to 400 nM by Western blot analysis; format: functional, cell-based
[5] = Toxicity in Balb/c nude mouse xenografted with PANC1 cells assessed as body weight loss at 25 to 50 mg/kg/day, ip; format: organism-based; conditions: in vivo
PANC-1 [6] = experiment: Antiinvasive activity against human PANC1 cells measured after 18 hrs in presence of mitomycin C using crystal violet staining by inverted microscopy-based matrigel coated transwell assay; format: functional, cell-based; conditions: PANC-1, 18 h
[7] = target: Epidermal growth factor receptor (Homo sapiens) (UniProt P00533); experiment: Effect on EGF-stimulated EGFR phosphorylation in MYOF-knockout human PANC1 cells at 400 nM by Western blot analysis
Sequence of Epidermal growth factor receptor (Homo sapiens) (P00533 whole entry): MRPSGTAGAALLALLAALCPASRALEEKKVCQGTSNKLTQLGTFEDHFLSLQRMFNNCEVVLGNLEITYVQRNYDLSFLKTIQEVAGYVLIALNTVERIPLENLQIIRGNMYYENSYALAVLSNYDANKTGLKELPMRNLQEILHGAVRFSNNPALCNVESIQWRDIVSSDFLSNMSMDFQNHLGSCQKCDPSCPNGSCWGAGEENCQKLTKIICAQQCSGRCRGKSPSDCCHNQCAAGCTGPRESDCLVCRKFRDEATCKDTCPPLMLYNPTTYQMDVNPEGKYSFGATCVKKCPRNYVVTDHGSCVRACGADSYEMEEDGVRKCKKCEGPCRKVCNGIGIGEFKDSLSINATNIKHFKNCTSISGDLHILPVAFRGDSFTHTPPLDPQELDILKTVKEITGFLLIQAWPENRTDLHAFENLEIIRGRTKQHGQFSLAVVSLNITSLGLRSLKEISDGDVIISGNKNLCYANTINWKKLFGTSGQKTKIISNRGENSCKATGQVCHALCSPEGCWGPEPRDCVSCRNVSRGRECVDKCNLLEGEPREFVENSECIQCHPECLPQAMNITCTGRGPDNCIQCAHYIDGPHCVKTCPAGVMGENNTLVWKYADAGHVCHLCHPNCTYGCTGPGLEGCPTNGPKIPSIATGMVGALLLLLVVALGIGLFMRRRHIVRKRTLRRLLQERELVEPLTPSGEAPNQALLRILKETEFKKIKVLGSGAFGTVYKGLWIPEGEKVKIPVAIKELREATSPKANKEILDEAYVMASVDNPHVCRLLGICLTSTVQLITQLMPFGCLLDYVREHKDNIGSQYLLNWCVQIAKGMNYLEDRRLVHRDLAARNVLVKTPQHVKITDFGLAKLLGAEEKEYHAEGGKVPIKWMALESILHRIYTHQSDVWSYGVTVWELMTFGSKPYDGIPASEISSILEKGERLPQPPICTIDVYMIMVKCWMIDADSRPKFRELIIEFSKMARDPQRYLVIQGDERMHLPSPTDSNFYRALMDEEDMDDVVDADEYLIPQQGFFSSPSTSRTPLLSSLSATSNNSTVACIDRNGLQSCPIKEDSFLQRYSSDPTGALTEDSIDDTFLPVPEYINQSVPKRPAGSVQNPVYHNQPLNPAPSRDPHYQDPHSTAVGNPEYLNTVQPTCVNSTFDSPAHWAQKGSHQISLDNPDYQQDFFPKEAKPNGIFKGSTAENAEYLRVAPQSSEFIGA

Myoferlin [8] = target: T1, Myoferlin; experiment: Inhibition of MYOF in human PANC1 cells assessed as increase in EGF-stimulated EGFR phosphorylation by Western blot analysis; format: cell-based
[9] = Cytotoxicity against HAF cells assessed as reduction in cell viability measured after 48 hrs by MTS assay; format: cell-based; conditions: Homo sapiens
MIA PaCa-2 = experiment: Cytotoxicity against human MIAPaCa2 cells assessed as reduction in cell viability measured after 48 hrs by MTS assay; format: cell-based; conditions: MIA PaCa-2, 48 h
Capan-2 = experiment: Cytotoxicity against human Capan2 cells assessed as reduction in cell viability measured after 48 hrs by MTS assay; format: cell-based; conditions: Capan-2, 48 h
Cytochrome P450 2E1 = Cytochrome P450 2E1 (Homo sapiens, UniProt P05181); experiment: Inhibition of CYP2E1 in human liver microsomes using chlorzoxazone as substrate preincubated for 5 mins followed by NADPH-generating system addition and measured after 20 mins by LC-MS/MS analysis
Sequence of Cytochrome P450 2E1 (P05181 whole entry): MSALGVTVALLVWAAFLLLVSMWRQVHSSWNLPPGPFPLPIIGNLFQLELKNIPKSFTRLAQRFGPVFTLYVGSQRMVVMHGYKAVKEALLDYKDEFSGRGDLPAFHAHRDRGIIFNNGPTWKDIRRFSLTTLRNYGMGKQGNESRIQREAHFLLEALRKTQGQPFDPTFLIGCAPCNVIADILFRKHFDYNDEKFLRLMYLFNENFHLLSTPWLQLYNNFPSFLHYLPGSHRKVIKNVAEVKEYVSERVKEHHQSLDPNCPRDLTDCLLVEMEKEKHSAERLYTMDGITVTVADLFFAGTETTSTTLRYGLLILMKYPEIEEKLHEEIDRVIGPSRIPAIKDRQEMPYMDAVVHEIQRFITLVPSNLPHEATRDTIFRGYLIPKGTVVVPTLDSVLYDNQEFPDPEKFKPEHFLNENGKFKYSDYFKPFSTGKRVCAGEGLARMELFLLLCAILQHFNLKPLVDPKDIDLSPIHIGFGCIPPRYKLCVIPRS

Myoferlin [10] = target: T1, Myoferlin; experiment: Inhibition of MYOF in human PANC1 cells assessed as reduction in MMP1 secretion measured after 24 hrs by SDS-PAGE analysis; format: cell-based
PANC-1 [11] = experiment: Effect on MMP1 secretion in MYOF-knockout human PANC1 cells up to 400 nM by Western blot analysis; format: functional, cell-based
Cytochrome P450 2D6 = Cytochrome P450 2D6 (Homo sapiens, UniProt P10635); experiment: Inhibition of CYP2D6 in human liver microsomes using tolbutamide as substrate preincubated for 5 mins followed by NADPH-generating system addition and measured after 20 mins by LC-MS/MS analysis
Sequence of Cytochrome P450 2D6 (P10635 whole entry): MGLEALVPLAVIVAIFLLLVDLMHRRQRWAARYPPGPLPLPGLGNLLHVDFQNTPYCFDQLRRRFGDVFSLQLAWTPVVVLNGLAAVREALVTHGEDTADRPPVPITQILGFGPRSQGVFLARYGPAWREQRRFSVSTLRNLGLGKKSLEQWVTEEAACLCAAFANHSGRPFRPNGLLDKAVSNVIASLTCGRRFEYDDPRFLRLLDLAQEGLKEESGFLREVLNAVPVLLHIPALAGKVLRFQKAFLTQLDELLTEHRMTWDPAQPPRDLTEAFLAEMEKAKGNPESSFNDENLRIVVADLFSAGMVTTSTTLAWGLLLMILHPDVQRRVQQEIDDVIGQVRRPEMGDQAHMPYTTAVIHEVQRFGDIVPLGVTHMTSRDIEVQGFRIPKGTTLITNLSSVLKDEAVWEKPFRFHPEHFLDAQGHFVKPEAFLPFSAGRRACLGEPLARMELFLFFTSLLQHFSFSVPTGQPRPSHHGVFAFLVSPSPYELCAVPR

Myoferlin [12] = target: T1, Myoferlin; experiment: Inhibition of MYOF in human PANC1 cells assessed as reversal of epithelial-mesenchymal transition by measuring down regulation of fibronectin expression up to 400 nM by Western blot analysis; format: cell-based
Cytochrome P450 2C9 = Cytochrome P450 2C9 (Homo sapiens, UniProt P11712); experiment: Inhibition of CYP2C9 in human liver microsomes using tolbutamide as substrate preincubated for 5 mins followed by NADPH-generating system addition and measured after 20 mins by LC-MS/MS analysis
Sequence of Cytochrome P450 2C9 (P11712 whole entry): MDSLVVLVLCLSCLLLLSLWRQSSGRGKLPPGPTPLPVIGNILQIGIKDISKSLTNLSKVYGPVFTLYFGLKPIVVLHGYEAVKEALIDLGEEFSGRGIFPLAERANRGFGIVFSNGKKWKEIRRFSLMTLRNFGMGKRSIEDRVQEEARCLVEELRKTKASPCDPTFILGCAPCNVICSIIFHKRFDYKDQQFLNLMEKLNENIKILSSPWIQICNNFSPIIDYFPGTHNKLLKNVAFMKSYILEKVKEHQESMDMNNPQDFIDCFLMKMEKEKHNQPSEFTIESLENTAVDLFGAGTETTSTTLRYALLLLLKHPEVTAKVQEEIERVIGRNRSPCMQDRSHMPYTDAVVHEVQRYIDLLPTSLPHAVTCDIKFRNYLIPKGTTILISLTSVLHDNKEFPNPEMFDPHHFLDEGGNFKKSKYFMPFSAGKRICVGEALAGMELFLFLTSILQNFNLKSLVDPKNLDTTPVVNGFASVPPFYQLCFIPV

Myoferlin [13] = target: T1, Myoferlin; experiment: Inhibition of MYOF in human PANC1 cells assessed as reduction in VEGFR2 level by Western blot analysis; format: cell-based

Structure (SMILES): CCc1nc(-c2ncc(OC)cn2)n(-c2cccc(C(=O)NCCCCc3ccccc3)c2)n1
- Activity (PANC-1 [1]): inactive
- Activity (PANC-1 [2]): Dose-dependent effect
- IC50 (PANC-1 [2]; PANC-1, 18 h): 0.11 µM
- inhibition (Myoferlin [3]): Dose-dependent effect
- IC50 (Cytochrome P450 1A2): > 50 µM
- Activity (PANC-1 [4]): inactive
- Activity [5]: Non-Toxic
- IC50 (PANC-1 [6]): 0.12 µM
- Activity [7]: inactive
- inhibition (Myoferlin [8]): Dose-dependent effect
- IC50 [9]: 8.54 µM
- IC50 (MIA PaCa-2): 1.54 µM
- IC50 (Capan-2): 2.85 µM
- IC50 (Cytochrome P450 2E1): > 50 µM
- inhibition (Myoferlin [10]): Dose-dependent effect
- Activity (PANC-1 [11]): inactive
- IC50 (Cytochrome P450 2D6): 49.6 µM
- inhibition (Myoferlin [12]): Dose-dependent effect
- IC50 (Cytochrome P450 2C9): 20.5 µM
- inhibition (Myoferlin [13]): Dose-dependent effect
